What was measured:
Format in all cases: functional, Homo sapiens
Parameters in all cases: dose or concentration left out as unconfirmed
[1] = tested on: Colon cancer organoid; assay: Optimized Dual-Glo assay to identify co-culture induced drug vulnerabilities using donated chemical probes and chemogenomics kinase set in O06 CRC organoid and F06 CAF mono and co-culture. […] Cell viability is reported both mono and co-culture models.
[2] = tested on: Colon cancer organoid; assay: Optimized Dual-Glo assay to identify co-culture induced drug vulnerabilities using donated chemical probes and chemogenomics kinase set in O14 CRC organoid and F14 CAF mono and co-culture. […] Cell viability is reported both mono and co-culture models.
[3] = tested on: Colon cancer organoid; assay: Optimized Dual-Glo assay to identify co-culture induced drug vulnerabilities using donated chemical probes and chemogenomics kinase set in O20 CRC organoid and F20 CAF mono and co-culture. […] Cell viability is reported both mono and co-culture models.
[4] = Culture type Co-Culture, Transduced with Lucferase2-P2A-EGFP lentivirus
[5] = Culture type Co-Culture, Transduced with Renilla-dsRed lentivirus
[6] = Culture type Mono-Culture, Transduced with Lucferase2-P2A-EGFP lentivirus
[7] = Culture type Mono-Culture, Transduced with Renilla-dsRed lentivirus

| SMILES | Cell Viability [1, 4] [%] | Cell Viability [1, 5] [%] | Cell Viability [1, 6] [%] | Cell Viability [1, 7] [%] | Cell Viability [2, 4] [%] | Cell Viability [2, 5] [%] | Cell Viability [2, 6] [%] | Cell Viability [2, 7] [%] | Cell Viability [3, 4] [%] | Cell Viability [3, 5] [%] | Cell Viability [3, 6] [%] | Cell Viability [3, 7] [%] |
| --- | --- | --- | --- | --- | --- | --- | --- | --- | --- | --- | --- | --- |
| Cc1c(C(=O)Nc2ccc(Oc3ccnc4[nH]cc(-c5ccccc5)c34)c(F)c2)c(=O)n(-c2ccc(F)cc2)n1C | 73.6786 | 56.2803 | 78.2312 | 39.3734 | 84.4536 | 22.1268 | 155.311 | 25.4653 | 223.97 | 22.9382 | 217.145 | 43.0843 |
| CC1(C)C(N)=Nc2cc(OCCCCN3Cc4ccc(OCc5cn(CC(=O)N6CCC(CCN7CCCC7)CC6)nn5)cc4C3)c(OCC3CC3)cc21 | 65.2251 | 114.368 | 80.2418 | 105.711 | 75.997 | 107.884 | 116.341 | 106.753 | 70.4635 | 125.652 | 114.565 | 111.957 |
| CN(C)C(=O)Cn1cc(-c2ccc(-c3cncc4ccccc34)cc2)cn1 | 83.3121 | 47.4852 | 74.4895 | 24.5354 | 86.7541 | 14.5396 | 75.1396 | 23.2323 | 97.1634 | 25.8647 | 131.343 | 32.5119 |
| Cc1ccc2nc(NCCN)c3ncc(C)n3c2c1.O=C(O)C(F)(F)F.O=C(O)C(F)(F)F | 94.0156 | 112.188 | 113.649 | 154.019 | 82.3615 | 114.809 | 73.2048 | 109.465 | 230.973 | 67.6056 | 101.148 | 93.4293 |
| CN(C)C(=O)Cn1cc(-c2ccc(-c3nnc4ccccn34)cc2)cn1 | 105.212 | 110.192 | 69.5948 | 88.4504 | 93.0602 | 86.1026 | 137.129 | 87.3202 | 165.558 | 52.6743 | 140.63 | 85.2439 |
| Cc1ncsc1-c1ccc(CNC(=O)[C@@H]2C[C@@H](O)CN2C(=O)[C@@H](NC(=O)CCCCNC(=O)c2ccc(-c3ccc(N4CCN(C)CC4)c(NC(=O)c4c[nH]c(=O)cc4C(F)(F)F)c3)cc2)C(C)(C)C)cc1 | 81.8894 | 85.2238 | 101.813 | 95.3362 | 94.9121 | 103.946 | 89.8204 | 93.3904 | 171.817 | 86.697 | 106.449 | 104.541 |
| O=C(CNCc1cc2ccccc2[nH]1)N[C@H]1CC[C@@H](c2nc3ccccc3[nH]2)CC1 | 85.8975 | 91.436 | 103.293 | 98.1178 | 97.4401 | 97.7804 | 95.7204 | 104.778 | 100.625 | 124.153 | 84.865 | 96.1375 |
| N#CN1CC[C@H](C(=O)Nc2nc3c(s2)CN(C(=O)CN=[N+]=[N-])CC3)C1 [8RK64] | 104.648 | 104.354 | 102.804 | 85.3904 | 91.8118 | 102.385 | 81.5329 | 88.8457 | 67.2995 | 105.29 | 57.1131 | 75.6901 |
| CN(C)[C@@H]1CCN(c2cc(-c3ccccc3)nc3ccnn23)C1 [(R)-ZINC-3573] | 122.992 | 121.371 | 72.8757 | 94.4779 | 103.063 | 100.336 | 115.069 | 113.962 | 97.0418 | 99.7993 | 84.3174 | 93.0838 |
| CN(C)[C@H]1CCN(c2cc(-c3ccccc3)nc3ccnn23)C1 [(S)-ZINC-3573] | 87.7689 | 121.05 | 76.4871 | 118.538 | 106.455 | 83.2705 | 93.2108 | 87.5469 | 92.3796 | 112.128 | 114.664 | 102.75 |
